From paper PMC4823724 (Scientific Reports, 2016)

Key:
RpfG [1] = test system: RpfG
RpfG [2] = test system: RpfG; remark: listed apart in the source

Chain of RpfG (G7TEN6 1-378): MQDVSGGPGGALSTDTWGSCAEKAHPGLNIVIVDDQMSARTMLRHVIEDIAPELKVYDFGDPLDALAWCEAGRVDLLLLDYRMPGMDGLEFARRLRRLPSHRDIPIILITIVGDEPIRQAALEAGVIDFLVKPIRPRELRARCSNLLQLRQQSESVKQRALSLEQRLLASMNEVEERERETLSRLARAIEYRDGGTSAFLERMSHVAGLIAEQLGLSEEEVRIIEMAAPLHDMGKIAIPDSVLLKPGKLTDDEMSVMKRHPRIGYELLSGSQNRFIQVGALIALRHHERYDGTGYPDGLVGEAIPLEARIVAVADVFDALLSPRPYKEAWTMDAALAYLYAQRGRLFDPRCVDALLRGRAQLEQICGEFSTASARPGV

Row | Structure (SMILES) | HPLC phosphodiesterase assay (RpfG [1]) | colorimetric phosphodiesterase assay at 410 nm (RpfG [2])
1 | Nc1nc2c(ncn2[C@@H]2O[C@@H]3COP(=O)(O)O[C@H]4[C@@H](O)[C@H](n5cnc6c(=O)[nH]c(N)nc65)O[C@@H]4COP(=O)(O)O[C@H]3[C@H]2O)c(=O)[nH]1 [c-di-GMP] | degraded product pGpG was produced when RpfG was incubated with c-di-GMP | 
2 | O=[N+]([O-])c1ccc(OP(=O)(O)Oc2ccc([N+](=O)[O-])cc2)cc1 [bis(p-nitrophenyl) phosphate] |  | RpfG efficiently converted bis(p-nitrophenyl) phosphate into p-nitrophenol
